From patent publication US9951077B2, “Aminopyridazinone compounds as protein kinase inhibitors” (ETERNITY BIOSCIENCE INC., priority 2014, dated 2018)
Read-outs that look alike come from different tables or passages of the source.

What was measured:
TMD-8 cells = test: Cell proliferation assay (CellTiter-Glo), TMD-8 cells; format: cell-based; details: 5-day treatment, read-out: TMD8 cells growth IC50
Experimental: TMD-8 and SU-DHL-1 cells were maintained at 37° C. in a humidified atmosphere with 5% CO2 in the recommended medium and serum concentrations. For cell proliferation assay, cells were seeded in 96-well pates at a density of 5,000 to 10,000 cells per well and cultured overnight at 37° C. in recommended medium supplemented with 5-10% FBS. On the next day, the test articles at various concentrations or vehicle control (0.5% DMSO) were added into cell culture. After 5-day treatment, the growth of cells was assayed by the CellTiter-Glo® Luminestceaent Cell Viability Assay (Promega). IC50 values were calculated using GraphPad Prism by plotting the logarithm of the concentration versus percent inhibition of cell growth as compared with the vehicle control.

Btk = Btk (Homo sapiens (Human), UniProt Q06187); test: Btk kinase assay (ADP-Glo); format: biochemical; details: ATP 1.2 μM, 60 minutes, room temperature; read-out: BTK enzyme IC50
Btk, sequence (Q06187 whole entry): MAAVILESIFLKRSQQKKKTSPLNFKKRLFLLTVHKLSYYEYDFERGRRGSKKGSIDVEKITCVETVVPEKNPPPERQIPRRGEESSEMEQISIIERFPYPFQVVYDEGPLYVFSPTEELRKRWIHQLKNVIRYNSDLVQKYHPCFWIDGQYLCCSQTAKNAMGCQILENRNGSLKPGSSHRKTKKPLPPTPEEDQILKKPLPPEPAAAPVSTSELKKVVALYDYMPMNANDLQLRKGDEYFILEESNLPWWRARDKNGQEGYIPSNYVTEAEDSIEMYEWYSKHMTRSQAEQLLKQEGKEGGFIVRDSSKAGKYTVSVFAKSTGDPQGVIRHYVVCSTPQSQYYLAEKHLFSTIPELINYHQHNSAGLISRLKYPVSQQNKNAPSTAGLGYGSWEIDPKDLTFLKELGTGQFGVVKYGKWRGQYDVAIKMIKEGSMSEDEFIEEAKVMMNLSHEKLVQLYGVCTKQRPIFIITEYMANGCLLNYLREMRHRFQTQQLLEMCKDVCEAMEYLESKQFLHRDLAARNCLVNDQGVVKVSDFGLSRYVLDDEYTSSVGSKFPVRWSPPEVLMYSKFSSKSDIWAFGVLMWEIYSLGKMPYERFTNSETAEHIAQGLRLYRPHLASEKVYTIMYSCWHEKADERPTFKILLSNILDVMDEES
Summary of the method: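 Recombinant human Btk (2 ng/μl) with poly GT peptide (0.3 μM), ATP (1.2 μM), MnCl2 (1.4 mM) and DTT (40 nM), 60 min at room temperature (22±1° C.). ADP formed was read by ADP-Glo luminescence after ATP depletion. IC50 from log concentration versus percent inhibition relative to DMSO vehicle.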

Molecule | IC50 (Btk) | IC50 (TMD-8 cells) | IC50 (TMD-8 cells; Homo sapiens, TMD8, 120 h)
4-amino-3-(4-phenoxyphenyl)-1-(1- prop-2-enoyl-3-piperidyl)-6H- pyrazolo[3,4-d]pyridazin-7-one [Example 2] | ≤ 10 nM | ≤ 10 nM | –
CN(C/C=C/C(=O)N1CCC[C@@H](n2cc(-c3ccc(Oc4ccccc4)cc3)c3c(N)n[nH]c(=O)c32)C1)C1CCCCC1 [Example 32, 4-amino-1-[(3R)-1-[(E)-4-[cyclohexyl(methyl)amino]but-2-enoyl]-3-piperidyl]-3-(4-phenoxyphenyl)-6H-pyrrolo[2,3-d]pyridazin-7-one] | 10 to 1000 nM | 10 to 1000 nM | –
CN1CCN(C/C=C/C(=O)N2CCC[C@@H](n3cc(-c4ccc(Oc5ccccc5)cc4)c4c(N)n[nH]c(=O)c43)C2)CC1 [Example 36, 4-amino-1-[(3R)-1-[(E)-4-(4-methylpiperazin-1-yl)but-2-enoyl]-3-piperidyl]-3-(4-phenoxyphenyl)-6H-pyrrolo[2,3-d]pyridazin-7-one] | ≤ 10 nM | 10 to 1000 nM | –
CN(C)C/C=C/C(=O)NC1CCC(n2cc(-c3ccc(Oc4ccccc4)cc3)c3c(N)n[nH]c(=O)c32)CC1 (stereo not shown) [Example 46, (E)-N-[4-[4-amino-7-oxo-3-(4-phenoxyphenyl)-6H-pyrrolo[2,3-d]pyridazin-1-yl]cyclohexyl]-4-(dimethylamino)but-2-enamide] | 10 to 1000 nM | – | 10 to 1000 nM
CN(C)C/C=C/C(=O)N1CC(Cn2cc(-c3ccc(Oc4ccccc4)cc3)c3c(N)n[nH]c(=O)c32)C1 [Example 47, 4-amino-1-[[1-[(E)-4-(dimethylamino)but-2-enoyl]azetidin-3-yl]methyl]-3-(4-phenoxyphenyl)-6H-pyrrolo[2,3-d]pyridazin-7-one] | ≤ 10 nM | – | ≤ 10 nM
CN(C)C/C=C/C(=O)NC1C2CCC1CC(n1cc(-c3ccc(Oc4ccccc4)cc3)c3c(N)n[nH]c(=O)c31)C2 (stereo not shown) [Example 48, (E)-N-[3-[4-amino-7-oxo-3-(4-phenoxyphenyl)-6H-pyrrolo[2,3-d]pyridazin-1-yl]-8-bicyclo[3.2.1]octanyl]-4-(dimethylamino)but-2-enamide] | 10 to 1000 nM | – | 10 to 1000 nM
CC#CC(=O)N1C[C@H](OC)[C@@H](n2cc(-c3ccc(Oc4ccccc4F)cc3)c3c(N)n[nH]c(=O)c32)C1 [Example 98, 4-amino-1-((3S,4S)-1-(but-2-ynoyl)-4-methoxypyrrolidin-3-yl)-3-(4-(2-fluorophenoxy)phenyl)-1H-pyrrolo[2,3-d]pyridazin-7(6H)-one] | 10 to 1000 nM | – | –
CN(C)CC#CC(=O)N1CC[C@@H](n2cc(-c3ccc(Oc4ccccc4F)cc3)c3c(N)n[nH]c(=O)c32)C1 [Example 99, (R)-4-amino-1-(1-(4-(dimethylamino)but-2-ynoyl)pyrrolidin-3-yl)-3-(4-(2-fluorophenoxy)phenyl)-1H-pyrrolo[2,3-d]pyridazin-7(6H)-one] | ≤ 10 nM | – | –
CC#CC(=O)NC1CCC(n2cc(-c3ccc(Oc4ccccc4F)cc3)c3c(N)n[nH]c(=O)c32)C1 (stereo not shown) [Example 100, N-(3-(4-amino-3-(4-(2-fluorophenoxy)phenyl)-7-oxo-6,7-dihydro-1H-pyrrolo[2,3-d]pyridazin-1-yl)cyclopentyl)but-2-ynamide] | 10 to 1000 nM | – | –
CC#CC(=O)N1CC[C@H](n2cc(-c3ccc(Oc4ccccc4F)cc3)c3c(N)n[nH]c(=O)c32)C1 [Example 101, (S)-4-amino-1-(1-(but-2-ynoyl)pyrrolidin-3-yl)-3-(4-(2-fluorophenoxy)phenyl)-1H-pyrrolo[2,3-d]pyridazin-7(6H)-one] | 1000 to 100000 nM | – | –
CC#CC(=O)N[C@H]1CC[C@@H](n2cc(-c3ccc(Oc4ccccc4F)cc3)c3c(N)n[nH]c(=O)c32)CC1 [Example 102, N-((1s,4s)-4-(4-amino-3-(4-(2-fluorophenoxy)phenyl)-7-oxo-6,7-dihydro-1H-pyrrolo[2,3-d]pyridazin-1-yl)cyclohexyl)but-2-ynamide] | 10 to 1000 nM | – | –
CC#CC(=O)N[C@H]1CC[C@H](n2cc(-c3ccc(Oc4ccccc4F)cc3)c3c(N)n[nH]c(=O)c32)CC1 [Example 103, N-((1r,4r)-4-(4-amino-3-(4-(2-fluorophenoxy)phenyl)-7-oxo-6,7-dihydro-1H-pyrrolo[2,3-d]pyridazin-1-yl)cyclohexyl)but-2-ynamide] | 10 to 1000 nM | – | ≤ 10 nM
C=CC(=O)N[C@H]1CC[C@H](n2cc(-c3ccc(Oc4ccccc4F)cc3)c3c(N)n[nH]c(=O)c32)CC1 [Example 105, N-((1r,4r)-4-(4-amino-3-(4-(2-fluorophenoxy)phenyl)-7-oxo-6,7-dihydro-1H-pyrrolo[2,3-d]pyridazin-1-yl)cyclohexyl)acrylamide] | 10 to 1000 nM | – | –
N#CN1CCCC(n2cc(-c3ccc(Oc4ccccc4F)cc3)c3c(N)n[nH]c(=O)c32)C1 (stereo not shown) [Example 108, 3-(4-amino-3-(4-(2-fluorophenoxy)phenyl)-7-oxo-6,7-dihydro-1H-pyrrolo[2,3-d]pyridazin-1-yl)piperidine-1-carbonitrile] | ≤ 10 nM | – | –
C=CC(=O)N1CCC[C@@H](n2nc(-c3ccc(Oc4ccccc4F)cc3)c3c(N)n[nH]c(=O)c32)C1 [Example 109, (R)-1-(1-acryloylpiperidin-3-yl)-4-amino-3-(4-(2-fluorophenoxy)phenyl)-1H-pyrazolo[3,4-d]pyridazin-7(6H)-one] | 10 to 1000 nM | – | –
C=CC(=O)N1CCC[C@@H](n2nc(-c3ccc(Oc4ccccc4)cc3)c3c(N)n[nH]c(=O)c32)C1 [Example 110, (R)-1-(1-acryloylpiperidin-3-yl)-4-amino-3-(4-phenoxyphenyl)-1H-pyrazolo[3,4-d]pyridazin-7(6H)-one] | 10 to 1000 nM | – | –
C=CC(=O)N1CCC[C@H](n2cc(-c3ccc(Oc4c(F)cccc4F)cc3)c3c(N)n[nH]c(=O)c32)C1 [Example 114, (S)-1-(1-acryloylpiperidin-3-yl)-4-amino-3-(4-(2,6-difluorophenoxy)phenyl)-1H-pyrrolo[2,3-d]pyridazin-7(6H)-one] | 10 to 1000 nM | – | –
C/C=C/C(=O)N1CCC[C@@H](n2cc(-c3ccc(Oc4c(F)cccc4F)cc3)c3c(N)n[nH]c(=O)c32)C1 [Example 116, 4-amino-3-[4-(2,6-difluorophenoxy)phenyl]-1-[(3R)-1-[(E)-but-2-enoyl]-3-piperidyl]-6H-pyrrolo[2,3-d]pyridazin-7-one] | 10 to 1000 nM | – | –
CCCC(=O)N1CC[C@@H](n2cc(-c3ccc(Oc4c(F)cccc4F)cc3)c3c(N)n[nH]c(=O)c32)C1 [Example 118, (R)-4-amino-1-(1-butyrylpyrrolidin-3-yl)-3-(4-(2,6-difluorophenoxy)phenyl)-1H-pyrrolo[2,3-d]pyridazin-7(6H)-one] | 1000 to 100000 nM | – | –

More lines, main results first:

IC50 (Btk) | Molecule | IC50 (TMD-8 cells) | IC50 (TMD-8 cells; Homo sapiens, TMD8, 120 h)
≤ 10 nM | CN(C)C/C=C/C(=O)N1CCC(F)C(n2cc(-c3ccc(Oc4ccccc4)cc3)c3c(N)n[nH]c(=O)c32)C1 (stereo not shown) [Example 45, 4-amino-1-[1-[(E)-4-(dimethylamino)but-2-enoyl]-4-fluoro-3-piperidyl]-3-(4-phenoxyphenyl)-6H-pyrrolo[2,3-d]pyridazin-7-one] | – | ≤ 10 nM
10 to 1000 nM | CC#CC(=O)N1CC[C@@H](n2cc(-c3ccc(Oc4ccccc4Cl)cc3)c3c(N)n[nH]c(=O)c32)C1 [Example 96, (R)-4-amino-1-(1-(but-2-ynoyl)pyrrolidin-3-yl)-3-(4-(2-chlorophenoxy)phenyl)-1H-pyrrolo[2,3-d]pyridazin-7(6H)-one] | – | –
10 to 1000 nM | CC#CC(=O)N1CC[C@@H](n2cc(-c3ccc(Oc4ccccc4)cc3)c3c(N)n[nH]c(=O)c32)C1 [Example 97, (R)-4-amino-1-(1-(but-2-ynoyl)pyrrolidin-3-yl)-3-(4-phenoxyphenyl)-1H-pyrrolo[2,3-d]pyridazin-7(6H)-one] | – | –
10 to 1000 nM | C=CC(=O)N[C@H]1CC[C@@H](n2cc(-c3ccc(Oc4ccccc4F)cc3)c3c(N)n[nH]c(=O)c32)CC1 [Example 104, N-((1s,4s)-4-(4-amino-3-(4-(2-fluorophenoxy)phenyl)-7-oxo-6,7-dihydro-1H-pyrrolo[2,3-d]pyridazin-1-yl)cyclohexyl)acrylamide] | – | –
10 to 1000 nM | C=CC(=O)N1CC[C@@H](n2cc(-c3ccc(Oc4ccccc4F)cc3)c3c(N)n[nH]c(=O)c32)C1 [Example 106, (R)-1-(1-acryloylpyrrolidin-3-yl)-4-amino-3-(4-(2-fluorophenoxy)phenyl)-1H-pyrrolo[2,3-d]pyridazin-7(6H)-one] | – | –
≤ 10 nM | N#CN1CC[C@@H](n2cc(-c3ccc(Oc4ccccc4)cc3)c3c(N)n[nH]c(=O)c32)C1 [Example 107, (R)-3-(4-amino-7-oxo-3-(4-phenoxyphenyl)-6,7-dihydro-1H-pyrrolo[2,3-d]pyridazin-1-yl)pyrrolidine-1-carbonitrile] | – | –
≤ 10 nM | CC#CC(=O)N1CC[C@@H](n2nc(-c3ccc(Oc4ccccc4)cc3)c3c(N)n[nH]c(=O)c32)C1 [Example 111, (R)-4-amino-1-(1-(but-2-ynoyl)pyrrolidin-3-yl)-3-(4-phenoxyphenyl)-1H-pyrazolo[3,4-d]pyridazin-7(6H)-one] | – | ≤ 10 nM
10 to 1000 nM | CCC(=O)N1CCC[C@@H](n2cc(-c3ccc(Oc4c(F)cccc4F)cc3)c3c(N)n[nH]c(=O)c32)C1 [Example 115, (R)-4-amino-3-(4-(2,6-difluorophenoxy)phenyl)-1-(1-propionylpiperidin-3-yl)-1H-pyrrolo[2,3-d]pyridazin-7(6H)-one] | – | –
10 to 1000 nM | CC#CC(=O)N1CCC[C@@H](n2cc(-c3ccc(Oc4c(F)cccc4F)cc3)c3c(N)n[nH]c(=O)c32)C1 [Example 117, (R)-4-amino-1-(1-(but-2-ynoyl)piperidin-3-yl)-3-(4-(2,6-difluorophenoxy)phenyl)-1H-pyrrolo[2,3-d]pyridazin-7(6H)-one] | – | –
